Source: PMC5978884, “Dissection of the antimicrobial and hemolytic activity of Cap18: Generation of Cap18 derivatives with enhanced specificity” (PLoS ONE, 2018)
Values after ≈ are worked out from the molar mass of the structure shown. Like-named read-outs stand apart in the source and are kept apart here. Where no end group is shown, it is not given here.

Legend:
Format in all cases: cell-based
[1] = test system: Yersinia ruckeri 392/2003; test: microbe, parasite or virus in culture; settings: for MIC: Yersinia ruckeri, 392/2003, read-out: MIC Yersinia ruckeri 392/2003
Description: (§1) All strains were grown in Mueller-Hinton-II medium, except L. monocytogenes which was grown in BHI medium and L. lactis which was grown in MRS medium. Incubation took place aerobically at 37°C, except for Y. ruckeri and A. salmonicida, which were grown aerobically at RT (20 °C), and L. lactis grown aerobically at 30°C. All plates were incubated for 16–21 hours.
(§2) The minimum inhibitory concentrations (MICs) of the AMPs were measured in 96-well microtiter plates according the Clinical and Laboratory Standards Institute (CLSI, formerly National Committee for Clinical Laboratory Standards [NCCLS]). Briefly, liquid Mueller-Hinton-II medium containing increasing concentrations of AMPs is inoculated with a defined number of cells (approx. 10^5 CFUs/ml) in 96-well microtiter plates (polypropylene), whereas each plate also includes a positive growth control and a negative control (sterile control). The range of peptide concentrations analyzed was 0.125–64 μg/ml for the high purity peptides and 0.06–32 μg/ml for peptides of the variant library. After incubation, the MIC is determined by the lowest concentration showing no visible growth. All plates were incubated for 16–20 hours. The MIC of the reference antibiotics was determined by the use of Sensititre panels (Trek Diagnostic Systems Ltd, East Grinstead, UK).

[2] = test system: Aeromonas salmonicida ATCC33658; test: microbe, parasite or virus in culture; settings: for MIC: Aeromonas salmonicida
Description: as §1, §2

[3] = test system: Salmonella enterica serovar Typhimurium LT2; test: microbe, parasite or virus in culture; settings: for MIC: Salmonella enterica, TYPHIMURIUM, read-out: MIC Salmonella Typhimurium LT2; for MIC S. Typhimurium / MIC S. Typhimurium LT2: LT2
Description: as §1, §2

[4] = test system: Lactococcus lactis IL1403
Description: as §1, §2

[5] = test system: Pseudomonas aeruginosa ATCC27853
Description: as §1, §2

[6] = test system: Listeria monocytogenes N22-2
Description: as §1, §2

[7] = test system: Enterococcus faecalis ATCC29212
Description: as §1, §2

[8] = test system: Escherichia coli ATCC25922
Description: as §1, §2

[9] = standard antibiotics, Sensititre panels, triplicates, ≤ = sensitive to lowest concentration in plate
[10] = ATCC33658, read-out: MIC Aermononas salmonicida ATCC33658

## CC1(C)S[C@@H]2[C@H](NC(=O)[C@H](N)c3ccccc3)C(=O)N2[C@H]1C(=O)O [Ampicillin, reference compound]
[1]
  MIC: 2 µg/mL (≈ 5.72 µM)
[2]; ATCC33658, standard antibiotics, Sensititre panels, triplicates, ≤ = sensitive to lowest concentration in plate, read-out: MIC Aermononas salmonicida ATCC33658
  MIC: ≤ 1 µg/mL
[3]; [9]
  MIC: ≤ 1 µg/mL

## CNC(C)C1CCC(N)C(OC2C(N)CC(N)C(OC3OCC(C)(O)C(NC)C3O)C2O)O1 (centres unmarked) [Gentamicin, reference compound]
[1]
  MIC: 1 to 2 µg/mL (≈ 2.09 to 4.19 µM)
[2]; [10]
  MIC: 1 µg/mL (≈ 2.09 µM)
[3]
  MIC: 0.5 to 1 µg/mL (≈ 1.05 to 2.09 µM)

## CCn1cc(C(=O)O)c(=O)c2ccc(C)nc21 [Nalidixic acid, reference compound]
[1]
  MIC: 32 µg/mL (≈ 138 µM)
[2]; [10]
  MIC: ≤ 4 µg/mL
[3]
  MIC: ≤ 4 µg/mL

## GLRKRDRKFRNKIKEKLKKIGQKIQGLLPKLAPRTDY [Peptide L6D]
[4]
  MIC L. lactis: 16 µg/mL
[2]; ATCC33658
  MIC A. salmonicida: 16 µg/mL
[3]
  MIC S. Typhimurium: 8 µg/mL

## GLRKRLRKFRNKFKEKLKKIGQKIQGLLPKLAPRTDY [Peptide 4]
[5]
  MIC P. aeruginosa ATCC27853: 4 to 8 µg/mL
[4]
  MIC L. lactis IL1403: 2 µg/mL
[6]
  MIC L. monocytogenes N22-2: 4 µg/mL
[7]
  MIC E. faecalis ATCC29212: 8 to 16 µg/mL
[8]
  MIC E. coli ATCC25922: 4 to 8 µg/mL
[1]
  MIC Y. ruckeri 392/2003: 2 µg/mL
[2]; ATCC33658
  MIC A. salmonicida ATCC33658: 4 µg/mL
[3]
  MIC S. Typhimurium LT2: 4 µg/mL

## GLRKRLRKFRNKHKEKLKKIGQKIQGLLPKLAPRTDY [Peptide 5]
[5]
  MIC P. aeruginosa ATCC27853: 8 to 16 µg/mL
[4]
  MIC L. lactis IL1403: ≥64 µg/mL
[6]
  MIC L. monocytogenes N22-2: 32 µg/mL
[7]
  MIC E. faecalis ATCC29212: ≥64 µg/mL
[8]
  MIC E. coli ATCC25922: 4 µg/mL
[1]
  MIC Y. ruckeri: 8 µg/mL
  MIC Y. ruckeri 392/2003: 8 to 16 µg/mL
[2]; ATCC33658
  MIC A. salmonicida: 4 µg/mL
  MIC A. salmonicida ATCC33658: 2 to 4 µg/mL
[3]
  MIC S. Typhimurium: 8 µg/mL
  MIC S. Typhimurium LT2: 4 µg/mL

## GLRKRLRKFRNKIKECLKKIGQKIQGLLPKLAPRTDY [Peptide 9]
[5]
  MIC P. aeruginosa ATCC27853: 16 to 32 µg/mL
[4]
  MIC L. lactis IL1403: ≥64 µg/mL
[6]
  MIC L. monocytogenes N22-2: 16 µg/mL
[7]
  MIC E. faecalis ATCC29212: 32 µg/mL
[8]
  MIC E. coli ATCC25922: 8 µg/mL
[1]
  MIC Y. ruckeri: 2 µg/mL
  MIC Y. ruckeri 392/2003: 8 to 16 µg/mL
[2]; ATCC33658
  MIC A. salmonicida: 4 µg/mL
  MIC A. salmonicida ATCC33658: 8 µg/mL
[3]
  MIC S. Typhimurium: 8 µg/mL
  MIC S. Typhimurium LT2: 8 to 16 µg/mL

## GLRKRLRKFRNKIKEDLKKIGQKIQGLLPKLAPRTDY [Peptide 10]
[5]
  MIC P. aeruginosa ATCC27853: 16 to 32 µg/mL
[4]
  MIC L. lactis IL1403: 2 µg/mL
[6]
  MIC L. monocytogenes N22-2: 4 to 8 µg/mL
[7]
  MIC E. faecalis ATCC29212: 32 µg/mL
[8]
  MIC E. coli ATCC25922: 4 to 8 µg/mL
[1]
  MIC Y. ruckeri 392/2003: 4 µg/mL
[2]; ATCC33658
  MIC A. salmonicida ATCC33658: 2 to 4 µg/mL
[3]
  MIC S. Typhimurium LT2: 4 µg/mL

## GLRKRLRKFRNKIKEFLKKIGQKIQGLLPKLAPRTDY [Peptide 11]
[5]
  MIC P. aeruginosa ATCC27853: 32 µg/mL
[4]
  MIC L. lactis IL1403: ≥64 µg/mL
[6]
  MIC L. monocytogenes N22-2: 16 µg/mL
[7]
  MIC E. faecalis ATCC29212: 16 µg/mL
[8]
  MIC E. coli ATCC25922: 16 µg/mL
[1]
  MIC Y. ruckeri: 4 µg/mL
  MIC Y. ruckeri 392/2003: 16 to 32 µg/mL
[2]; ATCC33658
  MIC A. salmonicida: 4 µg/mL
  MIC A. salmonicida ATCC33658: 16 to 32 µg/mL
[3]
  MIC S. Typhimurium: 8 µg/mL
  MIC S. Typhimurium LT2: 16 µg/mL

## GLRKRLRKFRNKIKEILKKIGQKIQGLLPKLAPRTDY [Peptide 12]
[5]
  MIC P. aeruginosa ATCC27853: 16 µg/mL
[4]
  MIC L. lactis IL1403: ≥64 µg/mL
[6]
  MIC L. monocytogenes N22-2: 8 to 16 µg/mL
[7]
  MIC E. faecalis ATCC29212: 16 µg/mL
[8]
  MIC E. coli ATCC25922: 16 µg/mL
[1]
  MIC Y. ruckeri: 4 µg/mL
  MIC Y. ruckeri 392/2003: 16 µg/mL
[2]; ATCC33658
  MIC A. salmonicida: 4 µg/mL
  MIC A. salmonicida ATCC33658: 8 to 16 µg/mL
[3]
  MIC S. Typhimurium: 4 µg/mL
  MIC S. Typhimurium LT2: 16 µg/mL

## GLRKRLRKFRNKIKEKCKKIGQKIQGLLPKLAPRTDY [Peptide L17C]
[2]; ATCC33658
  MIC A. salmonicida: 8 µg/mL
[3]
  MIC S. Typhimurium: 8 µg/mL

## GLRKRLRKFRNKIKEKHKKIGQKIQGLLPKLAPRTDY [Peptide L17H]
[2]; ATCC33658
  MIC A. salmonicida: 8 µg/mL
[3]
  MIC S. Typhimurium: 8 µg/mL

## GLRKRLRKFRNKIKEKKKKIGQKIQGLLPKLAPRTDY [Peptide 17]
[5]
  MIC P. aeruginosa ATCC27853: 8 µg/mL
[4]
  MIC L. lactis IL1403: ≥64 µg/mL
[6]
  MIC L. monocytogenes N22-2: 16 to 32 µg/mL
[7]
  MIC E. faecalis ATCC29212: ≥64 µg/mL
[8]
  MIC E. coli ATCC25922: ≥64 µg/mL
[1]
  MIC Y. ruckeri 392/2003: ≥64 µg/mL
[2]; ATCC33658
  MIC A. salmonicida: 4 µg/mL
  MIC A. salmonicida ATCC33658: 16 to 32 µg/mL
[3]
  MIC S. Typhimurium: 4 µg/mL
  MIC S. Typhimurium LT2: 16 µg/mL

## GLRKRLRKFRNKIKEKLKKEGQKIQGLLPKLAPRTDY [Peptide 20]
[5]
  MIC P. aeruginosa ATCC27853: 16 µg/mL
[4]
  MIC L. lactis IL1403: 32 µg/mL
[6]
  MIC L. monocytogenes N22-2: 32 µg/mL
[7]
  MIC E. faecalis ATCC29212: ≥64 µg/mL
[8]
  MIC E. coli ATCC25922: ≥64 µg/mL
[1]
  MIC Y. ruckeri: 16 µg/mL
  MIC Y. ruckeri 392/2003: 32 µg/mL
[2]; ATCC33658
  MIC A. salmonicida: 8 µg/mL
  MIC A. salmonicida ATCC33658: 16 µg/mL
[3]
  MIC S. Typhimurium: 4 µg/mL
  MIC S. Typhimurium LT2: 8 µg/mL

## GLRKRLRKFRNKIKEKLKKIGQKHQGLLPKLAPRTDY [Peptide I24H]
[2]; ATCC33658
  MIC A. salmonicida: 8 µg/mL
[3]
  MIC S. Typhimurium: 8 µg/mL

## GLRKRLRKFRNKIKEKLKKIGQKIQGLLPKCAPRTDY [Peptide L31C]
[4]
  MIC L. lactis: 8 µg/mL
[1]
  MIC Y. ruckeri: 4 µg/mL
[2]; ATCC33658
  MIC A. salmonicida: 4 µg/mL

## GLRKRLRKFRNKIKEKLKKIGQKIQGLLPKLAPRHDY [Peptide T35H]
[4]
  MIC L. lactis: 8 µg/mL
[1]
  MIC Y. ruckeri: 2 µg/mL
[2]; ATCC33658
  MIC A. salmonicida: 2 µg/mL

## GLRKRLRKFRNKIKEKLKKIGQKIQGLLPKLAPRTDD [Peptide Y37D]
[4]
  MIC L. lactis: 8 µg/mL
[1]
  MIC Y. ruckeri: 2 µg/mL
[2]; ATCC33658
  MIC A. salmonicida: 2 µg/mL

## GLRKRLRKFRNKIKEKLKKIIQKIQGLLPKLAPRTDY [Peptide G21I]
[1]
  MIC Y. ruckeri: 8 µg/mL
[2]; ATCC33658
  MIC A. salmonicida: 8 µg/mL
[3]
  MIC S. Typhimurium: 8 µg/mL

## GLRKRLRKFRNKIKEKLKKQGQKIQGLLPKLAPRTDY [Peptide I20Q]
[1]
  MIC Y. ruckeri: 8 µg/mL
[2]; ATCC33658
  MIC A. salmonicida: 8 µg/mL
[3]
  MIC S. Typhimurium: 8 µg/mL

## GLRKRLRKFRNKIKEKLKKRGQKIQGLLPKLAPRTDY [Peptide I20R]
[1]
  MIC Y. ruckeri: 16 µg/mL
[2]; ATCC33658
  MIC A. salmonicida: 16 µg/mL
[3]
  MIC S. Typhimurium: 8 µg/mL

## GLRKRLRKFRNKNKEKLKKIGQKIQGLLPKLAPRTDY [Peptide I13N]
[2]; ATCC33658
  MIC A. salmonicida: 8 µg/mL
[3]
  MIC S. Typhimurium: 8 µg/mL

## GLRKRRRKFRNKIKEKLKKIGQKIQGLLPKLAPRTDY [Peptide L6R]
[1]
  MIC Y. ruckeri: 16 µg/mL
[2]; ATCC33658
  MIC A. salmonicida: 16 µg/mL
[3]
  MIC S. Typhimurium: 8 µg/mL

## Polymyxin E [reference compound]
[1]; standard antibiotics, Sensititre panels, triplicates
  MIC Yersinia ruckeri 392/2003: 1 to 2 µg/mL
[2]; [9]
  MIC Aermononas salmonicida ATCC33658: 2 µg/mL
[3]; [9]
  MIC Salmonella Typhimurium LT2: 2 µg/mL
